The text below walks through data of patent US12441725B2, “ISO-citrate dehydrogenase (IDH) inhibitor” (ZHEJIANG METON PHARMACEUTICAL CO., LTD, priority 2019, dated 2025).

A value given as a limit tells only on which side of the number the result lay.

One assay addresses T1, IDH1 R132H (Homo sapiens, UniProt O75874, R132H).
T1 construct: 6xHis
Nature of the assay: Biochemical assay for IDH inhibition (NADPH fluorescence), mutant IDH1 R132H. Conditions: 50 nM IDH1-R132H, 1 hour pre-incubation, in triplet. The text has this: (§1) The present disclosure provides a biochemical assay method for detecting the IDH inhibition and selectivity of the compounds by detecting IDH enzyme activity directly.
(§2) Wild-type IDH enzymes convert NADP^+ to NADPH when catalyzing the α-KG producing reaction. Mutant IDH enzymes convert NADPH to NADP^+ when catalyzing the D-2-HG producing reaction. So, the activity of wild-type and mutant IDH1/2 could be measured by monitoring NADPH level change as NADPH is fluorescent (Excitation 340 nm, Emission 460 nm). By monitoring the change of NADPH level in the reaction, the enzyme activity could be determined rapidly and efficiently and IC50 of a compound could also be assayed.
(§3) The test compounds are prepared into 50 mM stock solutions in DMSO and stored at −20° C. Each test compound stock is further diluted to obtain a 100× stock solution at a concentration of 400 μM, 200 μM, 100 μM, 50 μM, 25 μM, 12.5 μM, 6.25 μM and 3.125 μM, respectively, for the final use on the day of test (the concentration range of 100× stock solutions might be adjusted to cover the estimated IC50 of a specific test compound).
(§4) Inhibition of Mutant IDH1 (R132H or R132C):
(§5) To assay the enzymatic activity of mutant IDH1 proteins, 25 nM IDH1-R132C or 50 nM IDH1-R132H protein solutions are prepared in 20 mM Tris-HCl pH7.5, 150 mM NaCl, 10 mM MgCl2, 1 mM DTT, 0.05 mg/ml BSA and 1.33 mM α-KG. 148 μL 25 nM IDH1-R132C or 50 nM IDH1-R132H protein solutions are mixed with 2 μL DMSO (vehicle control for test compounds) or an above-mentioned 100× stock solution of a test compound and incubated for 1 hour at room temperature. Extra reactions containing 148 μL no-enzyme solution (20 mM Tris-HCl pH7.5, 150 mM NaCl, 10 mM MgCl2, 1 mM DTT, 0.05 mg/ml BSA and 1.33 mM α-KG) and 2 μL DMSO are also set up as background controls. Then each reaction is initiated by adding 50 μL 80 μM NADPH solution prepared in 20 mM Tris-HCl pH7.5, 150 mM NaCl, 10 mM MgCl2, 1 mM DTT and 0.05 mg/ml BSA. BioTek Synergy H1 Microplate reader (BioTek Instruments Inc., Winooski, U.S.) is employed to monitor the NADPH fluorescence (Excitation 340 nm, Emission 460 nm) every 42 seconds for 15 minutes. NADPH change rate is determined according to the linear phase of the fluorescence-time curve and results from the background control reactions are used as background subtraction to calculate the net NADPH change rates of other reactions. The net NADPH change rates from the vehicle control reactions are used as 100% enzymatic activity and thus the relative enzymatic activity of reactions with test compounds added could be determined. Then a dose-response curve is drawn for each test compound and the corresponding IC50 is calculated. The IC50 value is used to evaluate the inhibition and selectivity of each test compound on the IDH enzymatic activity.
(§6) The IDH inhibition activity of the compounds were assessed according to Test 2 of the Biological Assay section. The test for mutant IDH1 R132H and IDH1 R132C inhibition of each compound was carried out in triplet. As used in Table 5, “A” refers to an inhibitory activity against IDH1 R132H or IDH1 R132C with an IC50<0.1 μM; “B” refers to an inhibitory activity against IDH1 R132H or IDH1 R132C with an IC50 from 0.1 μM to 0.5 μM; “C” refers to an inhibitory activity against IDH1 R132H or IDH1 R132C with an IC50 from 0.5 μM to 1 μM; “D” refers to an inhibitory activity against IDH1 R132H or IDH1 R132C with an IC50>1 μM.

In another assay the target is T2, IDH1 R132C (Homo sapiens, UniProt O75874, R132C).
T2 construct: 6xHis
In words: Biochemical assay for IDH inhibition (NADPH fluorescence), mutant IDH1 R132C. Conditions: 25 nM IDH1-R132C, 1 hour pre-incubation, in triplet.
Description: as §1, §2, §3, §4, §5, §6

Assay [1] deals with T3, IDH (endogenous IDH1 R132C) in HT1080 cell (Homo sapiens, UniProt O75874, R132C).
T3 construct: which harbor endogenous heterozygous IDH1 R132C and R132H mutation respectively and accumulate D-2-HG
Nature of the assay: Cell-based assay for IDH inhibition (decrease of D-2-HG) in HT1080 cells. Conditions: human fibrosarcoma cell line HT1080, 16 hours treatment, D-2-HG by LC-MS, in triplet. The text has this: The present disclosure also provides a cell-based method for assaying IDH inhibition and selectivity of the compounds in human fibrosarcoma cell line HT1080 and cholangiocarcinoma cell line HCCC 9810, which harbor endogenous heterozygous IDH1 R132C and R132H mutation respectively and accumulate D-2-HG. Tumor -derived IDH mutant lost its normal activity of producing α-KG, and gained a new activity of producing D-2-HG. D-2-HG is a metabolite specifically elevated in tumor cells expressing mutant IDH1 or IDH2 proteins. When treating such mutant IDH-expressing tumor cells with an effective IDH inhibitor, the synthesis of D-2-HG is blocked, and D-2-HG concentration is decreased by the oxidation reaction catalyzed by the endogenous D-2-HG dehydrogenase.
To perform a cell-based IDH inhibition assay, HT1080 and HCCC 9810 cells (or other cell lines harboring different IDH mutations) are cultured in DMEM supplemented with 10% FBS. The cells are treated with compounds of present disclosure at various different concentrations. 16 hours after the treatment, culture medium supernatants are removed and cell metabolites are extracted by 40% methanol and 40% acetonitrile in water (pre-chilled under −80° C.) at 4° C. for 1 hour. The extract supernatants are collected and cell debris are removed via high speed centrifugation. The resulting metabolite extracts are analyzed on an Agilent LC-MS system (model: 1290-6470) for 2-HG and glutamate concentration. A HILIC-Z column (2.1 mm×100 mm, […]) is employed on HPLC. Mobile phase A is 15 mM CH3COONH4 and 0.3% NH3·H2O in water. Mobile phase B is 15 mM CH3COONH4 and 0.3% NH3·H2O in 90% MeCN/10% H2O solvent. An 19% solvent A and 81% solvent B isocratic gradient method is used at a flow rate of 0.3 ml/min. D-2-HG is ionized under negative ion spray mode and detected through the multiple-reaction monitoring of a mass transition pair at m/z=147.0/128.9 and 147.0/85.1. Glutamate is ionized under ion spray mode and detected on negative polarity multiple-reaction monitoring of a mass transition pair at m/z=146/102 and 146/128 and its level is used to normalize 2-HG concentration. The activity of cellular mutant IDH proteins in the presence of each test compound at different concentrations can be represented by relative D-2-HG concentration to negative control samples (i.e., cells are treated with DMSO only), and the IC50 value could be determined to evaluate the inhibition and selectivity of each test compound on the IDH enzymatic activity.
The IDH inhibition activity of the compounds were assessed in human fibrosarcoma cell line HIT1080 according to Test 3 of the Biological Assay section. The test for IDH inhibition of each compound was carried out in triplet. As used in Table 6, “A” refers to an IDH inhibitory activity with an IC50<0.1 μM; “B” refers to an IDH inhibitory activity with an IC50 from 0.1 μM to 0.5 μM; “C” refers to an IDH inhibitory activity with an IC50 from 0.5 μM to 1 μM; “D” refers to an IDH inhibitory activity with an IC50>1 μM.

T1 sequence (O75874 whole entry R132H): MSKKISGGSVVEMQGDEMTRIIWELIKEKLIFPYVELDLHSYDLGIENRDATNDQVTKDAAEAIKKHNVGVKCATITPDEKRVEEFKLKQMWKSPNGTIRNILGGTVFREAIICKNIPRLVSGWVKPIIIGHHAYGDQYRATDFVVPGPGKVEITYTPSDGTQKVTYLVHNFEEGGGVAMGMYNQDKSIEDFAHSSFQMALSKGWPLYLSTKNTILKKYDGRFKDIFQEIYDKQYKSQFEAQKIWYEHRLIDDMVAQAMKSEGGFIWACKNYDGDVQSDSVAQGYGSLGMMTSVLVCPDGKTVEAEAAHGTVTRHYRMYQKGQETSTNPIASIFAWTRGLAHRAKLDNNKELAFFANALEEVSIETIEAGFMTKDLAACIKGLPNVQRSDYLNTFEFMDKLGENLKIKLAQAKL
T3 sequence (O75874 2-414 R132C): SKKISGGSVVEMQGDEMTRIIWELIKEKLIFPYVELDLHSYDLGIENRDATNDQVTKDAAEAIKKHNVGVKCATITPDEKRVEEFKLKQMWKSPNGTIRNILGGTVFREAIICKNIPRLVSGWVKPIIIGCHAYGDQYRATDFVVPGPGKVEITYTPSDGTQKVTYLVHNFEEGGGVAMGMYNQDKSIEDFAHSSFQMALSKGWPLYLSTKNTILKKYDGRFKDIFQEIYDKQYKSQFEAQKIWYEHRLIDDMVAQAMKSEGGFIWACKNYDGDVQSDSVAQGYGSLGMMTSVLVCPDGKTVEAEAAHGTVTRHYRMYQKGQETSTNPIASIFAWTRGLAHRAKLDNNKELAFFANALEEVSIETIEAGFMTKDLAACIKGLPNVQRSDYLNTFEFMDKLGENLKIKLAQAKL
T2 sequence (O75874 whole entry R132C): as the sequence (O75874 whole entry R132H) above, with H132C counted along it

For the molecule `CCN1Cc2c(ccnc2N[C@@H](C)c2ccc(Oc3ccc4c(cnn4C)c3)c(F)c2)C1=O` [Compound 1, 2-ethyl-4-[[(1S)-1-[3-fluoro-4-(1-methylindazol-5-yl)oxy-phenyl]ethyl]amino]-3H-pyrrolo[3,4-c]pyridin-1-one], the results for the IC50 (on IDH1 R132H; at IDH1 R132C; in assay [1]) were 100 to 500 nM, 100 to 500 nM and 500 to 1000 nM, respectively.
`CCN1Cc2c(ccnc2N[C@@H](C)c2ccc(Oc3cccc4c3ccn4C)c(F)c2)C1=O` [Compound 2, (S)-2-ethyl-4-((1-(3-fluoro-4-((1-methyl-1H-indol-4-yl)oxy)phenyl)ethyl)amino)-2,3-dihydro-1H-pyrrolo[3,4-c]pyridin-1-one]: the figures for the IC50 (on IDH1 R132H; at IDH1 R132C; in assay [1]) were 100 to 500 nM, 100 to 500 nM and 500 to 1000 nM, respectively.
As for `CCN1Cc2c(ccnc2N[C@@H](C)c2ccc(Oc3ccc4c(ccn4C)c3)c(F)c2)C1=O` [Compound 3, (S)-2-ethyl-4-((1-(3-fluoro-4-((1-methyl-1H-indol-5-yl)oxy)phenyl)ethyl)amino)-2,3-dihydro-1H-pyrrolo[3,4-c]pyridin-1-one], the figures for the concentration for half-maximal inhibition (IC50) (on IDH1 R132H; at IDH1 R132C; in assay [1]) were 100 to 500 nM, 100 to 500 nM and 500 to 1000 nM, respectively.
With `CCN1Cc2c(ccnc2N[C@@H](C)c2ccc(Oc3cnn(C)c3)c(F)c2)C1=O` [Compound 4, (S)-2-ethyl-4-((1-(3-fluoro-4-((1-methyl-1H-pyrazol-4-yl)oxy)phenyl)ethyl)amino)-2,3-dihydro-1H-pyrrolo[3,4-c]pyridin-1-one], the 50% inhibitory concentration (IC50) (on IDH1 R132H; at IDH1 R132C; in assay [1]) was above 1000 nM in each case.
`CCN1Cc2c(ccnc2N[C@@H](C)c2ccc(OC3Cc4ccccc4C3)c(F)c2)C1=O` [Compound 5, (S)-4-((1-(4-((2,3-dihydro-1H-inden-2-yl)oxy)-3-fluorophenyl)ethyl)amino)-2-ethyl-2,3-dihydro-1H-pyrrolo[3,4-c]pyridin-1-one]: the IC50 on IDH1 R132H was 500 to 1000 nM; at IDH1 R132C, 500 to 1000 nM; in assay [1], above 1000 nM.
On to `CCN1Cc2c(ccnc2N[C@@H](C)c2ccc(OC3CCc4ccccc43)c(F)c2)C1=O` (stereo partly drawn) [Compound 6, 4-(((1S)-1-(4-((2,3-dihydro-1H-inden-1-yl)oxy)-3-fluorophenyl)ethyl)amino)-2-ethyl-2,3-dihydro-1H-pyrrolo[3,4-c]pyridin-1-one], for which the IC50 is 500 to 1000 nM on IDH1 R132H, above 1000 nM on IDH1 R132C and above 1000 nM in assay [1].
Take `CCN1Cc2c(ccnc2N[C@@H](C)c2ccc(Oc3ccc(C(C)(C)C)nc3)c(F)c2)C1=O` [Compound 7, (S)-4-((1-(4-((6-(tert-butyl)pyridin-3-yl)oxy)-3-fluorophenyl)ethyl)amino)-2-ethyl-2,3-dihydro-1H-pyrrolo[3,4-c]pyridin-1-one]: the IC50 at IDH1 R132H is 100 to 500 nM; at IDH1 R132C, above 1000 nM; in assay [1], 500 to 1000 nM.
The matching figures for `CCN1Cc2c(ccnc2N[C@@H](C)c2ccc(Oc3ccc4c(c3)ncn4C)c(F)c2)C1=O` [Compound 8, (S)-2-ethyl-4-((1-(3-fluoro-4-((1-methyl-1H-benzo[d]imidazol-5-yl)oxy)phenyl)ethyl)amino)-2,3-dihydro-1H-pyrrolo[3,4-c]pyridin-1-one]: above 1000 nM, above 1000 nM and above 1000 nM.
Taken in the same sequence, the figures for `CCN1Cc2c(ccnc2N[C@@H](C)c2ccc(Oc3ccc4c(ccn4C(C)C)c3)c(F)c2)C1=O` [Compound 9, (S)-2-ethyl-4-((1-(3-fluoro-4-((1-isopropyl-1H-indol-5-yl)oxy)phenyl)ethyl)amino)-2,3-dihydro-1H-pyrrolo[3,4-c]pyridin-1-one] were 100 to 500 nM, 100 to 500 nM and 100 to 500 nM.
The matching figures for `CCN1Cc2c(ccnc2N[C@@H](C)c2ccc(Oc3ccc4c(ccn4CCO)c3)c(F)c2)C1=O` [Compound 10, (S)-2-ethyl-4-((1-(3-fluoro-4-((1-(2-hydroxyethyl)-1H-indol-5-yl)oxy)phenyl)ethyl)amino)-2,3-dihydro-1H-pyrrolo[3,4-c]pyridin-1-one]: 500 to 1000 nM, above 1000 nM and above 1000 nM.
As to `CCN1Cc2c(ccnc2N[C@@H](C)c2ccc(Oc3ccc4c(c3)cc(C)n4C)c(F)c2)C1=O` [Compound 11, (S)-4-((1-(4-((1,2-dimethyl-1H-indol-5-yl)oxy)-3-fluorophenyl)ethyl)amino)-2-ethyl-2,3-dihydro-1H-pyrrolo[3,4-c]pyridin-1-one], the IC50 is 100 to 500 nM at IDH1 R132H, 100 to 500 nM on IDH1 R132C and above 1000 nM in assay [1].
Regarding `CCN1Cc2c(ccnc2N[C@@H](C)c2ccc(Cc3ccnc(C(F)(F)F)c3)c(F)c2)C1=O` [Compound 53, (S)-2-ethyl-4-((1-(3-fluoro-4-((2-(trifluoromethyl)pyridin-4-yl)methyl)phenyl)ethyl)amino)-2,3-dihydro-1H-pyrrolo[3,4-c]pyridin-1-one], the half-maximal inhibitory concentration (IC50) at IDH1 R132H and on IDH1 R132C was above 1000 nM each time.
